Laboratory results as given in patent US20020152038A1, “Selection method for aroma substances” (priority 2000, published 2002).
Where two headings read alike, the source gives them in different places.

Assays:
[1] = Headspace above the lemonade, SPME, relative partition parameters; type: physicochemical
Protocol: (§1) The procedure is analogous in all examples.
The example reflects the taste impression which is perceived from via the olfactory epithelium, when enjoying a lemonade drink. The mixture of 39 odorants is incorporated into the above-mentioned lemonade drink (1) in an amount of 0.05%. 50 g of the lemonade drink are transferred to a 100 ml Erlenmeyer flask sealed with a septum and left to stand for 2 h at 35° C. with gentle stirring. The headspace above the lemonade is extracted using a SPME over 15 min. […] The analytical results are then used mathematically as described above.

[2] = according to COSMO-RS correlation
[3] = Headspace above the milkshake, SPME-GC, relative partition parameters; type: physicochemical
Protocol: as §1
The example reflects the taste impression which is perceived via the olfactory epithelium, when enjoying a milkshake. The milkshake is prepared as is generally customary. The mixture of 39 aroma substances is incorporated into the abovementioned milk product (1) in an amount of 0.2%. 50 g of this mixture are transferred to a 100 ml Erlenmeyer flask sealed with a septum and left to stand for 2 h at 35° C. with gentle stirring. The headspace above the mixture is extracted over 15 min using solid phase microextraction (SPME). The SPME needle is desorbed in a GC injector, and a gas chromatogram is recorded. […] The analytical results are then used mathematically as described above.

[4] = according to COSMO-RS correlation; remark: listed apart in the source
[5] = headspace vs lemonade, 0.05% odorant mixture, 2 h at 35° C., SPME 15 min
[6] = headspace vs milkshake, 0.2% aroma mixture, 2 h at 35° C., SPME 15 min

Compound | Activity (logarithmic partition parameter above lemonade) [1, 5] | Differences (Activity minus Prediction, lemonade) [2] | Activity (logarithmic partition parameter above a milkshake) [3, 6] | Differences (Activity minus Prediction, milkshake) [4] | Activity (logarithmic partition parameter above lemonade) [1] | Activity (logarithmic partition parameter above a milkshake) [3]
CCOC(=O)c1ccccc1C(=O)OCC [Diethyl phthalate] | −1.895 | −1.693 | −1.607 | −0.553 | – | –
CC(C)=CCC/C(C)=C/CO [Geraniol] | −0.413 | – | −0.053 | – | – | –
C=C1C2CCC(C2)C1(C)C (centres unmarked) [Camphene] | 0.465 | −0.226 | 0.985 | −0.169 | – | –
CC(=O)/C=C/C1C(C)=CCCC1(C)C (stereo not drawn) [Ionone, α, Ionone, alpha] | 0.024 | −0.060 | −0.001 | 0.158 | – | –
O=C(OCc1ccccc1)c1ccccc1O [Benzyl salicylate] | −3.037 | −0.340 | −3.313 | −1.057 | – | –
CC(=O)O[C@@H]1C[C@H]2CC[C@]1(C)C2(C)C (racemic) [Isobornyl acetate] | 0.994 | 0.587 | 0.707 | 0.480 | – | –
CC(=O)OC(C)(C)C1CC=C(C)CC1 (centres unmarked) [Terpinyl acetate] | – | – | – | – | 0.644 | 0.418
OCc1ccccc1 [Benzyl alcohol] | −1.955 | −0.783 | −0.819 | −0.391 | – | –
C=CC(C)(O)CCC=C(C)C (centres unmarked) [Linalool] | 0.141 | 0.246 | 0.225 | −0.231 | – | –
C=C1CCC2CC1C2(C)C (stereo not drawn) [Beta-Pinene] | 0.485 | −0.189 | 1.029 | −0.082 | – | –
CC(C=O)Cc1ccc(C(C)(C)C)cc1 (centres unmarked) [Lilial] | −0.656 | 0.074 | −0.690 | 0.135 | – | –
CC(C)CCOC(=O)c1ccccc1O [Isoamyl salicylate] | −0.462 | 0.201 | −0.528 | 0.215 | – | –
Caryophyllene | – | – | – | – | 0.827 | 1.132
CC(=O)/C=C/C1=C(C)CCCC1(C)C [Ionone, β, Ionone, beta] | −0.061 | 0.072 | −0.154 | 0.047 | – | –
C[C@@H]1CC[C@H]2C(C)(C)[C@H]3C[C@@]12CC[C@@]3(C)O [Cedrol] | −0.895 | 0.196 | −1.077 | −0.025 | – | –
C=C(C)[C@H]1CC=C(C)CC1 [Limonene D] | 0.925 | 0.072 | 1.088 | −0.090 | – | –
OCCc1ccccc1 [PEA, phenylethyl alcohol] | 0.001 | 0.272 | 0.188 | 0.225 | – | –
CC(=O)OC(C)(C)Cc1ccccc1 [DMBCA, dimethylbenzylcarbinyl acetate] | 0.523 | 0.898 | 0.378 | 0.537 | – | –
CC1=CCC(C(C)C)=CC1 [gamma-Terpinene] | 1.032 | 0.411 | 1.064 | −0.004 | – | –
O=c1ccc2ccccc2o1 [Coumarin] | – | 0.162 | – | 0.244 | – | –
CC(=O)OC(C)c1ccccc1 (centres unmarked) [Styrolyl acetate] | 0.312 | 0.641 | 0.402 | 0.554 | – | –
C=CC(C)CCCC(C)(C)O (centres unmarked) [Dihydromyrcenol] | 0.334 | 0.513 | 0.432 | 0.135 | – | –
CC(C)=CCCC(C)CCO (centres unmarked) [Citronellol] | 0.044 | 0.207 | 0.199 | 0.138 | – | –
CC(=O)O[C@]1(C)CC[C@@]23C[C@@H]1C(C)(C)[C@@H]2CC[C@H]3C [Cedryl acetate] | – | – | – | – | −1.653 | −1.690
CC(=O)OCC=C(C)C [Prenyl acetate] | 0.151 | −1.038 | 0.413 | −0.864 | – | –
CCCCCC/C(C=O)=C\c1ccccc1 [Hexylcinnamaldehyde, α] | −1.911 | −0.710 | −1.949 | −0.674 | – | –
CC(=O)OCc1ccccc1 [Benzyl acetate] | 0.086 | 0.552 | 0.306 | 0.515 | – | –
C=CCc1ccc(O)c(OC)c1 [Eugenol] | −0.841 | 0.454 | −0.557 | 0.528 | – | –
CC1=CCC2CC1C2(C)C (stereo not drawn) [alpha-Pinene] | 0.363 | −0.110 | 1.078 | 0.067 | – | –
CC(CC=O)CCCC(C)(C)O (centres unmarked) [Hydroxycitronellal] | −1.879 | −1.868 | −1.679 | −1.369 | – | –
